Structures can show the parent of a compound that is named as a salt.

A word on the IC50: it is the concentration at which inhibition is half-maximal. For orientation: EC50 means the concentration giving half of the maximal effect. A higher EC50 goes with a need for much substance.

For assay [1], the target named is T1, IRAK4 (Homo sapiens, UniProt Q9NWZ3).
T1 sequence (Q9NWZ3 1-460): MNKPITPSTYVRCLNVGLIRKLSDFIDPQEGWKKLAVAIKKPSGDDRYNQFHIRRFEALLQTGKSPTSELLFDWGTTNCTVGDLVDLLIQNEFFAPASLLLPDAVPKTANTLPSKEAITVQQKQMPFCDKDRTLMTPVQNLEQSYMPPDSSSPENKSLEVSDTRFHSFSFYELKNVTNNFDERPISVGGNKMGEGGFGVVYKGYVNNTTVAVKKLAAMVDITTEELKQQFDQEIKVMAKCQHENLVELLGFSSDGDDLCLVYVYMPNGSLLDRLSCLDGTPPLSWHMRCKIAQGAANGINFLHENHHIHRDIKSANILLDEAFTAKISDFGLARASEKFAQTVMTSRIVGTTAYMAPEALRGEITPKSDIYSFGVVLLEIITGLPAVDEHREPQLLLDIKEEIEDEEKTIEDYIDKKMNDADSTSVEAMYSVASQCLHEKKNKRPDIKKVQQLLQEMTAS
Description: IRAK4 PhosphoSens Biochemical Assay (BIOCHEM). To be noted: 200 μM ATP, 10 μM peptide substrate AQT0326, 1 nM IRAK4, room temperature, 240 minutes. How it is done: The PhosphoSens® biochemical assay was performed as described by the vendor (AssayQuant Technologies Inc. Marlborough, MA). A 1.25× stock solution of IRAK4 (PV4002, ThermoFisher Scientific, Waltham, MA) and a 5× stock solution of ATP and Sox conjugated peptide substrate, AQT0326 (CSKS-AQT0326B, AssayQuant Technologies), were prepared in 1× kinase reaction buffer consisting of 50 mM HEPES, pH 7.5, 0.01% Brij-35, 0.5 mM EGTA, 20 mM MgCl2 and 1 mM DTT. 10 μL of the ATP and substrate solution mix, for a final concentration of 200 μM ATP and 10 μM peptide substrate, was added to a Coming 3574 384-well, white, non-binding surface microtiter plate containing 0.5 μL of serially diluted test compounds prepared in DMSO. The reactions were started with the addition of 40 μL of the enzyme solution, for a final IRAK4 concentration of 1 nM, and monitored every 71 seconds for 240 minutes at λEX 360/λEM 485 in a BioTek Synergy H4 plate reader (Agilent Technologies, Santa Clara, CA) at room temperature. The initial linear portions of the progress curves were fit according to a linear equation to yield the slopes and converted to % inhibition based on a value of 100% activity for the no inhibitor treated control. IC50 values of each compound were obtained by fitting the % inhibition-compound concentration curves using Dotmatics software (Dotmatics, Bishops Stortford, Hertfordshire, England).

The target in assay [2] is T1, IRAK4. Briefly: ALE THP1 HTRF (IRAK4 in THP1 cell lysates, Homogeneous Time Resolved Fluorescence). To be noted: THP1 cells. The assay is classed as cell-based. More on the design: THP1 Homogeneous Time Resolved Fluorescence (ALE THP1 HTRF) Procedure; endogenous in cells; host or cells: THP1. On the procedure:
Cell culture media was prepared in a tissue culture hood in a sterile environment by adding 10% FBS and 1% Penicillin Streptomycin to 500 mL no phenol red RPMI 1640 media. The media was filtered through a Nalgene Bottle Top Filter and stored at 4° C.
For Homogenous Time Resolved Fluorescence (HTRF) assays, a Cisbio HTRF kit was used, which included: Lysis Buffer #1 4×, Blocking Reagent #3 100×, 20× Antibody 1 (Anti-IRAK4 d2), 20× Antibody 2 (Anti-IRAK4 k), and Detection Buffer.
4× Lysis Buffer was stored at 4° C. For use as 1× Lysis buffer, the 4× solution was diluted with de-ionized water (distilled water, Gibco Cat. #15230279) and 100× Blocking Reagent in a 1:3:0.04 volume ratio.
20× Antibody Solution aliquots were stored in −80° C. and the Detection Buffer was stored in 4° C. For use as a 1× Antibody Solution, the 20× Antibody Solution aliquot was diluted with Detection Buffer in a 1:19 volume ratio.
Cells were lysed at room temperature for 45 min with shaking. A BCA protein assay was performed and normalization was conducted to the desired total protein concentration with 1× lysis buffer. Next, 1× Antibody Solutions were prepared by adding 380 μL Detection Buffer to 20 μL 20× Antibody Solution aliquots and mixing well. 1× Antibody Solutions were combined 1:1 and briefly vortexed. For control wells, 20 μL 1× anti IRAK4-k Antibody Solution was saved. The 384-well plate (ProxiPlate-384 Plus, Perkin Elmer Cat. #6008289) was loaded by adding 4 μL of the mixed Antibody Solution to empty wells using a single channel repeater. Using a multi-channel repeater, 16 μL lysate was added per well, and any bubbles that were formed were popped with 20 μL pipette tips and Kimwipe edges. In column 10, triplicates of each control was prepared. In wells A10, B10, and C10, buffer control was prepared by adding 16 μL Lysis Buffer and 4 μL Detection Buffer. In wells D10, E10, and F10, cryptate control was prepared by adding 16 μL Lysis Buffer, 2 μL Detection Buffer, and 2 μL 1× anti IRAK4-k Antibody Solution. In wells G10, H10, and 110, a negative control was prepared by adding 16 μL Lysis Buffer and 4 μL mixed Antibody Solution. The plate was sealed with a clear seal and covered with an aluminum lid. The plate was spun down at 800 g for 5 min and incubated in the dark at room temperature overnight. The next day, the plate was spun down at 800 g for 5 min. The samples were analyzed by a plate reader (Envision, PerkinElmer) using the Desnor 384 HTRF program.
Background: TR-FRET usually uses a lanthanide donor and a delayed reading to cut background.

Assay [3] concerns the target T1, IRAK4. Briefly: IRAK4 PhosphoSens Biochemical Assay (BIOCHEM). To be noted: 200 μM ATP, 10 μM peptide substrate AQT0326, 1 nM IRAK4, room temperature, 240 minutes. This is another data set of the same source.

As for `Cn1nc(C2CCC(=O)NC2=O)c2ccc(NC3CCN(CC4CCC(n5cc(NC(=O)c6cnn7ccc(N8C[C@H](N)C[C@@H](F)C8)nc67)c(C(F)F)n5)CC4)CC3)cc21` (stereo partly drawn) [P-2, N-[3-(difluoromethyl)-1-[4-[[4-[[3-(2,6-dioxo-3-piperidyl)-1-methyl-indazol-6-yl]amino]-1-piperidyl]methyl]cyclohexyl]pyrazol-4-yl]-5-[(3R,5R)-3-amino-5-fluoro-1-piperidyl]pyrazolo[1,5-a]pyrimidine-3-carboxamide], at IRAK4 [1], the half-maximal inhibitory concentration (IC50) is below 0.5 nM. On IRAK4 [2], this molecule returned an EC50 of 4 nM.
Taken in the same sequence, the figures for `Cn1nc(C2CCC(=O)NC2=O)c2cccc(NC3CCN(CC4CCC(n5cc(NC(=O)c6cnn7ccc(N8C[C@H](N)C[C@@H](F)C8)nc67)c(C(F)F)n5)CC4)CC3)c21` (some centres unmarked) [P-3] were below 0.5 nM and 8 nM.
`Cn1nc(C2CCC(=O)NC2=O)c2ccc(NC3CCN(CC4CCC(n5cc(NC(=O)c6cnn7ccc(N8CC[C@H](F)[C@@H](N)C8)nc67)c(C(F)F)n5)CC4)CC3)cc21` (stereo partly drawn) [P-18, N-[3-(Difluoromethyl)-1-[4-[[4-[[3-(2,6-dioxo-3-piperidyl)-1-methyl-indazol-6-yl]amino]-1-piperidyl]methyl]cyclohexyl]pyrazol-4-yl]-5-[(3S,4S)-3-amino-4-fluoro-1-piperidyl]pyrazolo[1,5-a]pyrimidine-3-carboxamide]: the 50% inhibitory concentration (IC50) at IRAK4 [1] is below 0.5 nM. The molecule further showed an EC50 on IRAK4 [2] of 1 nM.
Consider `Cn1nc(C2CCC(=O)NC2=O)c2ccc(NC3CCN(CC4CCC(n5cc(NC(=O)c6cnn7ccc(N8CC[C@@H](F)[C@@H](N)C8)nc67)c(C(F)F)n5)CC4)CC3)cc21` (some centres unmarked) [P-21], for which the IC50 on IRAK4 [1] is below 0.5 nM. In addition, the EC50 on IRAK4 [2] is above 10000 nM.
As for `Cn1nc(C2CCC(=O)NC2=O)c2ccc(N[C@@H]3CCN(CC4CCC(n5cc(NC(=O)c6cnn7ccc(N8C[C@H](N)C[C@@H](F)C8)nc67)c(C(F)F)n5)CC4)C[C@@H]3F)cc21` (some centres unmarked) [P-24], the half-inhibitory concentration (IC50) on IRAK4 [1] is below 0.5 nM. Further, on IRAK4 [2], the EC50 is 4 nM.
Consider `Cn1nc(C2CCC(=O)NC2=O)c2ccc(N[C@H]3CCN(CC4CCC(n5cc(NC(=O)c6cnn7ccc(N8C[C@H](N)C[C@@H](F)C8)nc67)c(C(F)F)n5)CC4)C[C@@H]3F)cc21` (some centres unmarked) [P-25], for which the IC50 at IRAK4 [1] was below 0.5 nM. In addition, a half-maximal response on IRAK4 [2] (EC50) required 8 nM.
For `Cn1nc(C2CCC(=O)NC2=O)c2ccc(NC3CCN(CC4CCC(n5cc(NC(=O)c6cnn7ccc(N8CCOCC8)nc67)c(C(F)F)n5)CC4)CC3)cc21` (centres unmarked) [P-27, N-[3-(Difluoromethyl)-1-[4-[[4-[[3-(2,6-dioxo-3-piperidyl)-1-methyl-indazol-6-yl]amino]-1-piperidyl]methyl]cyclohexyl]pyrazol-4-yl]-5-morpholino-pyrazolo[1,5-a]pyrimidine-3-carboxamide formic acid salt], the IC50 on IRAK4 [1] is below 0.5 nM. The same molecule yielded an EC50 at IRAK4 [2] of 1 nM.
Taken in the same sequence, the figures for `CN(CC1CCC(n2cc(NC(=O)c3cnn4ccc(N5C[C@H](N)C[C@@H](F)C5)nc34)c(C(F)F)n2)CC1)C1CCN(c2ccc3c(C4CCC(=O)NC4=O)nn(C)c3c2)CC1` (some centres unmarked) [P-28, N-[3-(Difluoromethyl)-1-[4-[[[1-[3-(2,6-dioxo-3-piperidyl)-1-methyl-indazol-6-yl]-4-piperidyl]-methyl-amino]methyl]cyclohexyl]pyrazol-4-yl]-5-[(3r,5r)-3-amino-5-fluoro-1-piperidyl]pyrazolo[1,5-a]pyrimidine-3-carboxamide] were below 0.5 nM and 5 nM.
On the same counts, the results for `CN(CC1CCC(n2cc(NC(=O)c3cnn4ccc(N5C[C@H](N)C[C@@H](F)C5)nc34)c(C(F)F)n2)CC1)C1CCN(c2cccc3c(C4CCC(=O)NC4=O)nn(C)c23)CC1` (stereo partly drawn) [P-30, N-[3-(difluoromethyl)-1-[4-[[[1-[3-(2,6-dioxo-3-piperidyl)-1-methyl-indazol-7-yl]-4-piperidyl]-methyl-amino]methyl]cyclohexyl]pyrazol-4-yl]-5-[(3R,5R)-3-amino-5-fluoro-1-piperidyl]pyrazolo[1,5-a]pyrimidine-3-carboxamide] are below 0.5 nM and 14 nM.
Take `CN(c1cccc2c(C3CCC(=O)NC3=O)nn(C)c12)C1CCN(CCC2CCC(n3cc(NC(=O)c4cnn5ccc(N6CCOCC6)nc45)c(C(F)F)n3)CC2)CC1` (centres unmarked) [P-39]: on IRAK4 [1], the IC50 was below 0.5 nM. This molecule displayed an EC50 at IRAK4 [2] above 10000 nM.
`CN(CC1CCC(n2cc(NC(=O)c3cnn4ccc(N5C[C@H]6CC[C@@H](C5)O6)nc34)c(C(F)F)n2)CC1)C1CCN(c2ccc3c(C4CCC(=O)NC4=O)nn(C)c3c2)CC1` (some centres unmarked) [P-42]: on IRAK4 [1], the IC50 is below 0.5 nM. Moreover, the EC50 on IRAK4 [2] is above 10000 nM.
Consider `CN(C[C@H]1CC[C@H](n2cc(NC(=O)c3cnn4ccc(NCCN)nc34)c(C(F)F)n2)CC1)C1CCN(c2ccc3c(C4CCC(=O)NC4=O)nn(C)c3c2)CC1` (some centres unmarked) [P-45], for which, on IRAK4 [3], the IC50 was below 0.5 nM. Further, a half-maximal response at IRAK4 [2] (EC50) required 4 nM.
In the case of `CN(C[C@H]1CC[C@H](n2cc(NC(=O)c3cnn4ccc(N5CC[C@H](c6ccn(C)n6)C5)nc34)c(C(F)F)n2)CC1)C1CCN(c2ccc3c(C4CCC(=O)NC4=O)nn(C)c3c2)CC1` (some centres unmarked) [P-46], at IRAK4 [3], the midpoint of inhibition, the IC50, lay at 0.8 nM. Moreover, the 50% effective concentration (EC50) on IRAK4 [2] was above 3000 nM.
On the same counts, the results for `CN(C[C@H]1CC[C@H](n2cc(NC(=O)c3cnn4ccc(N5CC[C@@H](c6ccn(C)n6)C5)nc34)c(C(F)F)n2)CC1)C1CCN(c2ccc3c(C4CCC(=O)NC4=O)nn(C)c3c2)CC1` (some centres unmarked) [P-47] are 2.4 nM and 3750 nM.
Turning to `CN(CC1CCC(n2cc(NC(=O)c3cnn4ccc(N5Cc6cnn(C)c6C5)nc34)c(C(F)F)n2)CC1)C1CCN(c2ccc3c(C4CCC(=O)NC4=O)nn(C)c3c2)CC1` (centres unmarked) [P-49], the IC50 on IRAK4 [1] was 0.8 nM. On IRAK4 [2], this molecule had an EC50 above 10000 nM.
On the same counts, the results for `CN(CC1CCC(n2cc(NC(=O)c3cnn4ccc(N5CC[C@H](C#N)C5)nc34)c(C(F)F)n2)CC1)C1CCN(c2ccc3c(C4CCC(=O)NC4=O)nn(C)c3c2)CC1` (some centres unmarked) [P-50] are 0.8 nM and above 10000 nM.
